Experimental data taken from patent US20250136594A1 (Tango Therapeutics, Inc., priority 2022, published 2025).

Legend:
[1] = test system: SDMA in HAP1 MTAP-deleted (MTAP-null) cell line (PRMT5 inhibition); test: SDMA in-cell western assay, HAP1 MTAP-deleted cell line; conditions: for IC50 / IC90: Homo sapiens; for IC50: HAP1, read-out: Hap1 MTAP deleted IC50; for IC90: HAP1, read-out: Hap1 MTAP deleted IC90; for Hap1 MTAP intact/deleted ratio: ratio of SDMA IC50 in HAP1 MTAP-intact to HAP1 MTAP-deleted cell line
[2] = test system: HAP1 MTAP-deleted cell line; test: Viability assay, HAP1 MTAP-deleted cell line; assay type: cell-based; conditions: Homo sapiens; viability assay, HAP1 MTAP-deleted cell line; read-out: Hap1 MTAP deleted viability IC50
[3] = test system: SDMA in HAP1 MTAP-intact cell line (PRMT5 inhibition); test: SDMA in-cell western assay, HAP1 MTAP-intact cell line; conditions: Homo sapiens, HAP1, read-out: Hap1 MTAP intact IC50

Row | Structure (SMILES) | IC50 [1] [nM] | IC90 [1] [nM] | IC50 [3] [nM] | Hap1 MTAP intact/deleted ratio [1] | IC50 [2] [nM]
1 | CC(C)CN(Cc1ccccc1F)C(=O)C(=O)Nc1cnc(N)c2cn[nH]c12 [Compound 94, N-(4-amino-1H-pyrazolo[4,3-c]pyridin-7-yl)-N′-[(2-fluorophenyl)methyl]-N′-isobutyl-oxamide] | < 5 | < 75 | 5 to 50 | B (IC50 ratio greater than or equal to 15 fold but lower than 30 fold) | < 100
2 | Cc1cccc(CN(Cc2ccccn2)C(=O)C(=O)Nc2cnc(N)c3cn[nH]c23)c1 [Compound 52, N-(4-amino-1H-pyrazolo[4,3-c]pyridin-7-yl)-N′-(m-tolylmethyl)-N′-(2-pyridylmethyl)oxamide] | < 5 | < 75 | 5 to 50 | B (IC50 ratio greater than or equal to 15 fold but lower than 30 fold) | < 100
3 | Cc1cccnc1CN(C(=O)C(=O)Nc1cnc(N)c2cn[nH]c12)C(C)C(C)C (single isomer, unassigned) [Compound 106] | < 5 | < 75 | 5 to 50 | C (IC50 ratio of less than 15 fold) | < 100
4 | COC[C@@H](C1CC1)N(Cc1ccc(C(F)(F)F)cn1)C(=O)C(=O)Nc1cnc(N)c2cn[nH]c12 [Compound 39, (R)-N1-(4-amino-1H-pyrazolo[4,3-c]pyridin-7-yl)-N^2-(1-cyclopropyl-2-methoxyethyl)-N^2-((5-(trifluoromethyl)pyridin-2-yl)methyl)oxalamide] | < 5 | < 75 | 5 to 50 | B (IC50 ratio greater than or equal to 15 fold but lower than 30 fold) | < 100
5 | COc1ncc(NC(=O)C(=O)N(Cc2ccc(C(F)(F)F)cn2)[C@@H]2CCC[C@H]2OC(F)F)cc1C(N)=O [Compound 32, N1-(5-carbamoyl-6-methoxypyridin-3-yl)-N^2-((1R,2R)-2-(difluoromethoxy)cyclopentyl)-N^2-((5-(trifluoromethyl)pyridin-2-yl)methyl)oxalamide] | 5 to 50 | > 125 | > 50 | A (IC50 ratio greater than or equal to 30 fold) | 100 to 1000
6 | CCN(C(=O)C(=O)Nc1cnc(N)c2cn[nH]c12)C(C)c1ccc(C(F)(F)F)cc1 (centres unmarked) [Compound 58, N-(4-amino-1H-pyrazolo[4,3-c]pyridin-7-yl)-N′-ethyl-N′-[1-[4-(trifluoromethyl)phenyl]ethyl]oxamide] | < 5 | < 75 | > 50 | B (IC50 ratio greater than or equal to 15 fold but lower than 30 fold) | < 100
7 | Nc1ncc(NC(=O)C(=O)N(Cc2ccc(C(F)(F)F)cc2)Cc2ccc(C(F)(F)F)nc2)c2[nH]ncc12 [Compound 28, N-(4-amino-1H-pyrazolo[4,3-c]pyridin-7-yl)-N′-[[4-(trifluoromethyl)phenyl]methyl]-N′-[[6-(trifluoromethyl)-3-pyridyl]methyl]oxamide] | < 5 | > 125 | > 50 | A (IC50 ratio greater than or equal to 30 fold) | 100 to 1000
8 | CCN(Cc1ccc(C(F)(F)F)cc1F)C(=O)C(=O)Nc1cnc(N)c2cn[nH]c12 [Compound 72, N-(4-amino-2H-pyrazolo[4,3-c]pyridin-7-yl)-N′-ethyl-N′-[[2-fluoro-4-(trifluoromethyl)phenyl]methyl]oxamide] | < 5 | < 75 | 5 to 50 | A (IC50 ratio greater than or equal to 30 fold) | < 100
9 | Cc1ccccc1CN(C(=O)C(=O)Nc1cnc(N)c2cn[nH]c12)[C@@H](C)C(C)C [Compound 117, (S)—N^1-(4-amino-1H-pyrazolo[4,3-c]pyridin-7-yl)-N^2-(2-methylbenzyl)-N^2-(3-methylbutan-2-yl)oxalamide] | < 5 | 75 to 125 | > 50 | B (IC50 ratio greater than or equal to 15 fold but lower than 30 fold) | 100 to 1000
10 | CCN(C(=O)C(=O)Nc1cnc(N)c2cn[nH]c12)[C@H](C)c1ccc(C(F)(F)F)cc1C [Compound 70, (R)—N^1-(4-amino-1H-pyrazolo[4,3-c]pyridin-7-yl)-N^2-ethyl-N^2-(1-(2-methyl-4-(trifluoromethyl)phenyl)ethyl)oxalamide] | < 5 | < 75 | 5 to 50 | C (IC50 ratio of less than 15 fold) | < 100
11 | CC1CCC(N(Cc2ccc(C(F)(F)F)cn2)C(=O)C(=O)Nc2cnc(N)c3cn[nH]c23)c2ccccc21 (centres unmarked) [Compound 3, N1-(4-amino-1H-pyrazolo[4,3-c]pyridin-7-yl)-N^2-(4-methyl-1,2,3,4-tetrahydronaphthalen-1-yl)-N^2-((5-(trifluoromethyl)pyridin-2-yl)methyl)oxalamide] | 5 to 50 | < 75 | 5 to 50 | C (IC50 ratio of less than 15 fold) | < 100
12 | CCN(C(=O)C(=O)Nc1cnc(N)c2cn[nH]c12)[C@H](C)c1ccc(C(F)(F)C(F)(F)F)cc1C [Compound 59, (R)—N^1-(4-amino-1H-pyrazolo[4,3-c]pyridin-7-yl)-N^2-ethyl-N^2-(1-(2-methyl-4-(perfluoroethyl)phenyl)ethyl)oxalamide] | < 5 | < 75 | 5 to 50 | C (IC50 ratio of less than 15 fold) | < 100
13 | Nc1ncc(NC(=O)C(=O)N(Cc2cc(F)cc(F)c2)Cc2cc(F)cc(F)c2)c2[nH]ncc12 [Compound 2, N-(4-amino-1H-pyrazolo[4,3-c]pyridin-7-yl)-N′,N′-bis[(3,5-difluorophenyl)methyl]oxamide] | 5 to 50 | > 125 | > 50 | A (IC50 ratio greater than or equal to 30 fold) | 100 to 1000
14 | COC[C@@H](C1CC1)N(Cc1ccc(C(F)(F)F)cn1)C(=O)C(=O)Nc1cnc(N)c(C2CC2)c1 [Compound 45, (R)—N^1-(6-amino-5-cyclopropylpyridin-3-yl)-N^2-(1-cyclopropyl-2-methoxyethyl)-N^2-((5-(trifluoromethyl)pyridin-2-yl)methyl)oxalamide] | 5 to 50 | > 125 | > 50 | A (IC50 ratio greater than or equal to 30 fold) | 100 to 1000
15 | Cc1ccccc1CN(Cc1ccccc1)C(=O)C(=O)Nc1cnc(C)c2cn[nH]c12 [Compound 90] | < 5 | > 125 | > 50 | A (IC50 ratio greater than or equal to 30 fold) | 100 to 1000

More lines, main results first:

Row | IC50 [1] [nM] | IC90 [1] [nM] | IC50 [3] [nM] | Structure (SMILES) | Hap1 MTAP intact/deleted ratio [1] | IC50 [2] [nM]
16 | < 5 | < 75 | 5 to 50 | Nc1ncc(NC(=O)C(=O)N(Cc2ccccc2)Cc2ncccc2Cl)c2[nH]ncc12 [Compound 120, N-(4-amino-2H-pyrazolo[4,3-c]pyridin-7-yl)-N′-benzyl-N′-[(3-chloro-2-pyridyl)methyl]oxamide] | B (IC50 ratio greater than or equal to 15 fold but lower than 30 fold) | < 100
17 | < 5 | < 75 | > 50 | CC(C)CN(C(=O)C(=O)Nc1cnc(N)c2cn[nH]c12)C(C)c1ccccc1 (centres unmarked) [Compound 172, N-(4-amino-1H-pyrazolo[4,3-c]pyridin-7-yl)-N′-isobutyl-N′-(1-phenylethyl)oxamide] | B (IC50 ratio greater than or equal to 15 fold but lower than 30 fold) | < 100
18 | < 5 | < 75 | 5 to 50 | C[C@H](c1ccc(C(F)(F)C(F)(F)F)cc1)N(C)C(=O)C(=O)Nc1cnc(N)c2cn[nH]c12 [Compound 121, N-(4-amino-1H-pyrazolo[4,3-c]pyridin-7-yl)-N′-methyl-N′—[(1R)-1-[4-(1,1,2,2,2-pentafluoroethyl)phenyl]ethyl]oxamide] | B (IC50 ratio greater than or equal to 15 fold but lower than 30 fold) | < 100
19 | 5 to 50 | 75 to 125 | > 50 | C[C@@H](c1ccc(C(F)(F)C(F)(F)F)cc1F)N(C)C(=O)C(=O)Nc1cnc(N)c2cn[nH]c12 [Compound 168, N-(4-Amino-1H-pyrazolo[4,3-c]pyridin-7-yl)-N′-methyl-N′—[(1S)-1-[2-fluoro-4-(1,1,2,2,2-pentafluoroethyl)phenyl]ethyl]oxamide] | A (IC50 ratio greater than or equal to 30 fold) | < 100
20 | < 5 | < 75 | > 50 | CC(c1ccc(C(F)(F)F)cn1)N(C)C(=O)C(=O)Nc1cnc(N)c2cn[nH]c12 (racemic) [Compound 178, N-(4-amino-1H-pyrazolo[4,3-c]pyridin-7-yl)-N′-methyl-N′-[1-[5-(trifluoromethyl)-2-pyridyl]ethyl]oxamide] | A (IC50 ratio greater than or equal to 30 fold) | 100 to 1000
21 | < 5 | < 75 | > 50 | COc1ncc(NC(=O)C(=O)N(Cc2ccc(C(F)(F)F)cn2)Cc2ccccc2C)cc1C(N)=O [Compound 143] | A (IC50 ratio greater than or equal to 30 fold) | < 100
22 | < 5 | < 75 | 5 to 50 | Cc1cccc(CN(Cc2ccccc2)C(=O)C(=O)Nc2cnc(N)c3cn[nH]c23)c1C [Compound 130, N-(4-amino-2H-pyrazolo[4,3-c]pyridin-7-yl)-N′-benzyl-N′—[(2,3-dimethylphenyl)methyl]oxamide] | B (IC50 ratio greater than or equal to 15 fold but lower than 30 fold) | < 100
